Reference: patent US20150004261A1, “Rhizoma Arisaematis Extracts and Uses Thereof for Wound-Healing Effects” (THE HONG KONG UNIVERSITY OF SCIENCE AND TECHNOLOGY, priority 2011, published 2015)

Tested on: adult human keratinocytes
Assay: In-vitro scratch wound-healing assay
Format: cell-based
Settings: for closure of in vitro scratch wound gap: day 4, Example 9, FIG. 8B
Description: Human neonatal or adult keratinocytes late population doubling time (PD≧15) were trypsinized and seeded onto 6-well tissue culture plates (Falcon) at a density of 3×10^6 cells/well in HKGS (Cascade Biologics) and EpiLife (Cascade Biologics). After an overnight incubation in a 5% CO2 and 37° C. chamber, a bisecting scratch was made with a sterile p1000 micropipette tip and the cells were washed with PBS twice, and then replaced with the basal medium without the supplement for the duration of the assay.
Total extract, fractions and compounds of Rhizoma arisaematis were diluted in the basal medium without the supplement and added to the wells. EGF (Sigma) at 50 ng/mL was used as positive control, and DMSO (0.1%) was used as a vehicle control.
For each scratch, two consecutive fields were selected using the following criteria: relatively little cell debris within the scratch; even scratch, with straight edges; both edges visible under a single field using the 10× objective; fields not too close to either end of the scratch. The pictures were taken from day 1 for five consecutive days. The medium and the extracts were replenished daily for the duration of the assay.
To examine the efficacy of the herb Rhizoma arisaematis (RA) in in vitro closure of scratch wounds, human keratinocytes were incubated with the crude extract (RA-T) or different fractions of RA (100 μg/mL).
To examine the efficacy of the WA sub-fractions of RA in closing in vitro scratch wounds, RA-WA1 and RA-WA2 (1 μg/mL and 10 μg/mL) were tested using human keratinocytes. The scratch assay was performed using the procedures as described in Example 1. RA-WA1 and RA-WA2 at 1 μg/mL and 10 μg/mL were evaluated for their ability to close in vitro wound gap.
To examine the wound-healing effects, 3-O-(9,12-octadecadienoyl)-glyceryl-β-D-galactopyranoside (G192-C07) isolated from the BU fraction of RA (FIG. 8A) was incubated with human keratinocytes. The scratch assay was performed as described in Examples 1 and 5. G192-C07 at 1, 3, 10, and 30 μg/mL were evaluated for their ability to close in vitro wound gap. Epidermal growth factor (EGF, 10 ng/mL) and 0.1% DMSO were used as a positive and a vehicle control, respectively. Photographs of the wounds were taken immediately after the scratch and on day 4.

| Compound | closure of in vitro scratch wound gap (1 μM) | closure of in vitro scratch wound gap (3 μM) | closure of in vitro scratch wound gap (10 μM) | closure of in vitro scratch wound gap (30 μM) | closure of in vitro scratch wound gap (positive control, 10 ng/mL) | closure of in vitro scratch wounds (positive control, 50 ng/mL, Example 1, FIG. 1) |
| --- | --- | --- | --- | --- | --- | --- |
| CCCCC/C=C\C/C=C\CCCCCCCC(=O)OCC(O)CO[C@@H]1O[C@H](CO)[C@H](O)[C@H](O)[C@H]1O (stereo partly drawn) [Compound G192-C07, 3-O-(9Z,12Z-octadecadienoyl)-glyceryl-β-D-galactopyranoside] | partly closed the wound gap | partly closed the wound gap | partly closed the wound gap | fully closed the wounds by day 4 | – | – |
| EGF: Epidermal growth factor (Sigma), positive control (NSDSECPLSHDGYCLHDGVCMYIEALDKYACNCVVGYIGERCQYRDLKWWELR; Epidermal growth factor; UniProt P01133 971-1023, looked up) [reference compound] | – | – | – | – | fully closed the wounds by day 4 | closed the wounds by day 2 |
